The values below come from US8829007B2 (priority 2009, dated 2014).

The IC50 is the concentration needed to halve the response being measured.

One assay has as its system influenza A virus (A/PR/8/34). As to the kind of experiment: microbe, parasite or virus in culture. The assay is classed as cell-based. The conditions noted are these: Influenza A virus, PR/8, MDCK, MDCK cells infected with A/PR/8/34, cell protection (CPE); read-out: IC50 (mean all).
Turning to `CC(C)OC(=O)N1CCC[C@@H](CNc2nc(-c3c[nH]c4ncc(Cl)cc34)ncc2F)C1` [Compound 35, (S)-isopropyl 3-((2-(5-chloro-1H-pyrrolo[2,3-b]pyridin-3-yl)-5-fluoropyrimidin-4-ylamino)methyl)piperidine-1-carboxylate], the 50% inhibitory concentration (IC50) is above 20 µM.
Same read-out and setting: under `O=C(CC1CCCCC1)N1CCCC[C@@H]1CNc1nc(-c2c[nH]c3ncc(Cl)cc23)ncc1F` [Compound 294, (R)-1-(2-((2-(5-chloro-1H-pyrrolo[2,3-b]pyridin-3-yl)-5-fluoropyrimidin-4-ylamino)methyl)piperidin-1-yl)-2-cyclohexylethanone] stands above 20 µM; under `O=C(c1ccccc1Oc1ccccc1)N1CCC[C@H](CNc2nc(-c3c[nH]c4ncc(Cl)cc34)ncc2F)C1` [Compound 150, (R)-(3-((2-(5-chloro-1H-pyrrolo[2,3-b]pyridin-3-yl)-5-fluoropyrimidin-4-ylamino)methyl)piperidin-1-yl)(2-phenoxyphenyl)methanone], 5 to 20 µM.
As to `COc1ccccc1C(=O)N1CCC[C@H](CNc2nc(-c3c[nH]c4ncccc34)ncc2F)C1` [Compound 272, (R)-(3-((5-fluoro-2-(1H-pyrrolo[2,3-b]pyridin-3-yl)pyrimidin-4-ylamino)methyl)piperidin-1-yl)(2-methoxyphenyl)methanone], the IC50 is above 20 µM.
The same measure, in the same setting: for `CC(=O)N1CCC[C@H](CNc2nc(-c3c[nH]c4ncccc34)ncc2F)C1` [Compound 268, (R)-1-(3-((5-fluoro-2-(1H-pyrrolo[2,3-b]pyridin-3-yl)pyrimidin-4-ylamino)methyl)piperidin-1-yl)ethanone] the value was 5 to 20 µM; for `COc1cccc(C(=O)N2CCCC[C@@H]2CNc2nc(-c3c[nH]c4ncc(Cl)cc34)ncc2F)c1` [Compound 184, (R)-(2-((2-(5-chloro-1H-pyrrolo[2,3-b]pyridin-3-yl)-5-fluoropyrimidin-4-ylamino)methyl)piperidin-1-yl)(3-methoxyphenyl)methanone], above 20 µM; for `O=C(O)CCCC(=O)N1CCC[C@H](CNc2nc(-c3c[nH]c4ncc(Cl)cc34)ncc2F)C1` [Compound 53, (R)-5-(3-((2-(5-chloro-1H-pyrrolo[2,3-b]pyridin-3-yl)-5-fluoropyrimidin-4-ylamino)methyl)piperidin-1-yl)-5-oxopentanoic acid], 5 to 20 µM.
On to `COc1ccccc1C(=O)N1CCCC[C@H]1CNc1nc(-c2c[nH]c3ncccc23)ncc1F` [Compound 260, (S)-(2-((5-fluoro-2-(1H-pyrrolo[2,3-b]pyridin-3-yl)pyrimidin-4-ylamino)methyl)piperidin-1-yl)(2-methoxyphenyl)methanone], for which the concentration for half-maximal inhibition (IC50) is above 20 µM.
The same measure, in the same setting: for `Fc1cnc(-c2c[nH]c3ncc(Cl)cc23)nc1NC[C@@H]1CCCN(CC2CCCCC2)C1` [Compound 134, (S)-2-(5-chloro-1H-pyrrolo[2,3-b]pyridin-3-yl)-N-((1-(cyclohexylmethyl)piperidin-3-yl)methyl)-5-fluoropyrimidin-4-amine] the value was 5 to 20 µM; for `CCCC(=O)N1CCC[C@@H](CNc2nc(-c3c[nH]c4ncccc34)ncc2F)C1` [Compound 225, (S)-1-(3-((5-fluoro-2-(1H-pyrrolo[2,3-b]pyridin-3-yl)pyrimidin-4-ylamino)methyl)piperidin-1-yl)butan-1-one], 5 to 20 µM; for `O=C(O)[C@H]1C[C@H]1C(=O)N1CCC[C@H](CNc2nc(-c3c[nH]c4ncc(Cl)cc34)ncc2F)C1` [Compound 83, (1S,2R)-2-((R)-3-((2-(5-chloro-1H-pyrrolo[2,3-b]pyridin-3-yl)-5-fluoropyrimidin-4-ylamino)methyl)piperidine-1-carbonyl)cyclopropanecarboxylic acid], above 20 µM.
With `O=C(CCCCl)N1CCCC[C@@H]1CNc1nc(-c2c[nH]c3ncc(Cl)cc23)ncc1F` [Compound 278, (R)-4-chloro-1-(2-((2-(5-chloro-1H-pyrrolo[2,3-b]pyridin-3-yl)-5-fluoropyrimidin-4-ylamino)methyl)piperidin-1-yl)butan-1-one], the concentration for half-maximal inhibition (IC50) was above 20 µM.
On the same count and under the same terms, under `CC(C)(C)NC(=O)N1CCC[C@@H](CNc2nc(-c3c[nH]c4ncc(Cl)cc34)ncc2F)C1` [Compound 20, (S)—N-tert-butyl-3-((2-(5-chloro-1H-pyrrolo[2,3-b]pyridin-3-3-yl)-5-fluoropyrimidin-4-ylamino)methyl)piperidine-1-carboxamide] stands 5 to 20 µM.
As for `O=C(Nc1cccnc1)N1CCC[C@@H](CNc2nc(-c3c[nH]c4ncc(Cl)cc34)ncc2F)C1` [Compound 40, (S)-3-((2-(5-chloro-1H-pyrrolo[2,3-b]pyridin-3-yl)-5-fluoropyrimidin-4-ylamino)methyl)-N-(pyridin-3-yl)piperidine-1-carboxamide], the 50% inhibitory concentration (IC50) was above 20 µM.

Staying with this assay, now noted: Influenza A virus, PR/8, MDCK, MDCK cells infected with A/PR/8/34; survival of infected cells; class symbols; read-out: IC50 (mean all).
Take `CC(C)CC(=O)N1CCC[C@H](Nc2ccnc(-c3c[nH]c4ncc(Cl)cc34)n2)C1` [Compound 489]: the half-maximal inhibitory concentration (IC50) was below 5 µM.
On to `O=C1CC[C@H](CNc2nc(-c3c[nH]c4ncc(Cl)cc34)ncc2F)N1` [Compound 503], for which the half-maximal inhibitory concentration (IC50) is below 5 µM.
On the same count and under the same terms, for `CCNC(=O)[C@@H]1CCCC[C@@H]1Nc1nc(-c2c[nH]c3ncc(Cl)cc23)ncc1F` [Compound 519, (1R,2S)-2-(2-(5-chloro-1H-pyrrolo[2,3-b]pyridin-3-yl)-5-fluoropyrimidin-4-ylamino)-N-ethylcyclohexanecarboxamide] the value was 5 to 20 µM.
Same read-out and setting: for `COC(=O)CCC(=O)N1CCCC(Nc2ccnc(-c3c[nH]c4ncc(Cl)cc34)n2)C1` [Compound 487, (S)-methyl 4-(3-((2-(5-chloro-1H-pyrrolo[2,3-b]pyridin-3-yl)pyrimidin-4-ylamino)piperidin-1-yl)-4-oxobutanoate] the value was 5 to 20 µM.

The same assay, now with this note: Influenza A virus, PR/8, MDCK, mean all; A/PR/8/34 infected MDCK cells, CPE assay; read-out: IC50.
`CCC(=O)N[C@@H]1CCCC[C@@H]1Nc1nc(-c2c[nH]c3ncc(Cl)cc23)ncc1F` (relative stereo) [Compound 333, N-[cis-2-[[2-(5-chloro-1H-pyrrolo[2,3-b]pyridin-3-yl)-5-fluoro-pyrimidin-4-yl]amino]cyclohexyl]propanamide]: the half-inhibitory concentration (IC50) was in the range of 5 to 20 µM.
Still for that read-out and setting: for `CCC(=O)N[C@@H]1CCCC[C@@H]1Nc1nc(-c2c[nH]c3ncccc23)ncc1F` (relative stereo) [Compound 341, N-[cis-2-[[5-fluoro-2-(1H-pyrrolo[2,3-b]pyridin-3-yl)pyrimidin-4-yl]amino]-cyclohexyl]propanamide] the value was above 20 µM; for `CCCS(=O)(=O)N[C@@H]1CCCC[C@H]1Nc1nc(-c2c[nH]c3ncc(Cl)cc23)ncc1F` (relative stereo) [Compound 367, N-[trans-2-[[2-(5-chloro-1H-pyrrolo[2,3-b]pyridin-3-yl)-5-fluoro-pyrimidin-4-yl]amino]cyclohexyl]propane-1-sulfonamide], 5 to 20 µM.
On the same count and under the same terms, for `CS(=O)(=O)N[C@@H]1CCCC[C@H]1Nc1nc(-c2c[nH]c3ncccc23)ncc1F` [Compound 361, N-[(1R,2R)-2-[[5-fluoro-2-(1H-pyrrolo[2,3-b]pyridin-3-yl)pyrimidin-4-yl]amino]cyclohexyl]methanesulfonamide] the value was above 20 µM; for `CC(C)NC(=O)N1CCCC[C@@H]1CNc1nc(-c2c[nH]c3ncccc23)ncc1F` [Compound 371], above 20 µM; for `CCCC(=O)N[C@@H]1CCCC[C@H]1Nc1nc(-c2c[nH]c3ncccc23)ncc1F` [Compound 358, N-[(1R,2R)-2-[[5-fluoro-2-(1H-pyrrolo[2,3-b]pyridin-3-yl)pyrimidin-4-yl]amino]cyclohexyl]butanamide], above 20 µM.
The same measure, in the same setting: under `CCCS(=O)(=O)N1CCCC[C@@H]1CNc1nc(-c2c[nH]c3ncc(Cl)cc23)ncc1F` [Compound 328, (R)-2-(5-chloro-1H-pyrrolo[2,3-b]pyridin-3-yl)-5-fluoro-N-((1-(propylsulfonyl)piperidin-2-yl)methyl)pyrimidin-4-amine] stands above 20 µM; under `COCC(=O)N1CC(Nc2nc(-c3c[nH]c4ncc(Cl)cc34)ncc2F)C1` [Compound 468], 5 to 20 µM.
For the compound `O=C(C1CC1)N1CCOC(CNc2nc(-c3c[nH]c4ncc(Cl)cc34)ncc2F)C1` (stereo not drawn) [Compound 450, (2-((2-(5-chloro-1H-pyrrolo[2,3-b]pyridin-3-yl)-5-fluoropyrimidin-4-ylamino)methyl)morpholino)(cyclopropyl)methanone], the half-inhibitory concentration (IC50) is 5 to 20 µM.
In the case of `CCC(=O)N[C@@H]1CCCC[C@H]1Nc1nc(-c2c[nH]c3ncc(Cl)cc23)ncc1F` (relative stereo) [Compound 349, N-[trans-2-[[2-(5-chloro-1H-pyrrolo[2,3-b]pyridin-3-yl)-5-fluoro-pyrimidin-4-yl]amino]cyclohexyl]propanamide], the IC50 is above 20 µM.
Take `CCCNC(=O)N[C@@H]1CCCC[C@H]1Nc1nc(-c2c[nH]c3ncc(Cl)cc23)ncc1F` [Compound 355, 1-[(1R,2R)-2-[[2-(5-chloro-1H-pyrrolo[2,3-b]pyridin-3-yl)-5-fluoro-pyrimidin-4-yl]amino]cyclohexyl]-3-propyl-urea]: the IC50 is above 20 µM.

The same assay, now with this note: Influenza A virus, PR/8, MDCK; read-out: IC50 (mean all).
As for `O=C(Oc1ccc(F)cc1)N1CCC[C@H](CNc2nc(-c3c[nH]c4ncc(Cl)cc34)ncc2F)C1` [Compound 73, (R)-4-fluorophenyl 3-((2-(5-chloro-1H-pyrrolo[2,3-b]pyridin-3-yl)-5-fluoropyrimidin-4-ylamino)methyl)piperidine-1-carboxylate], the IC50 was in the range of 5 to 20 µM.

The assay is the same for the next values; noted with them: mean all; A/PR/8/34 infected MDCK cells, CPE assay; read-out: IC50.
Regarding `CC(=O)NC1CCCCC1Nc1nc(-c2c[nH]c3ncc(Cl)cc23)ncc1F` (stereo not drawn) [Compound 429], the half-inhibitory concentration (IC50) was in the range of 5 to 20 µM.
On the same count and under the same terms, for `O=C(C1CCOC1)N1CCC(Nc2nc(-c3c[nH]c4ncc(Cl)cc34)ncc2F)C1` (stereo not drawn) [Compound 467] the value was above 20 µM.
Same read-out and setting: for `O=C(OCC1CCOC1)N1CCC(Nc2nc(-c3c[nH]c4ncc(Cl)cc34)ncc2F)C1` (stereo not drawn) [Compound 475] the value was above 20 µM.
